Measured values published in PubChem BioAssay AID328 (DTP/NCI, 2004).
Values joined by “and” are separate entries in the source; they are usually repeats but may differ in a detail not shown here. Equal entries are not always repeated. Inconclusive results and toxic doses are left out.

Test system: BDF1 mice, P388 leukemia ip, median survival T/C
Assay: NCI In Vivo Anticancer Drug Screen. Data for tumor model P388 Leukemia (intraperitoneal) in B6D2F1 (BDF1) mice
Conditions: endpoint: median survival time, higher = longer survival
Outline: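 Antitumour effect was judged in vivo: survival in drug-treated mice, normalised to that of vehicle-dosed controls, gives the reported T/C.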

[1] = dose: 100.0 mg/kg/injection, schedule: Q01DX009 (ip), vehicle: saline
[2] = dose: 100.0 mg/kg/injection, schedule: Q04DX003 (ip), vehicle: saline
[3] = dose: 200.0 mg/kg/injection, schedule: Q04DX003 (ip), vehicle: saline
[4] = dose: 9.37 mg/kg/injection, schedule: Q01DX009 (ip), vehicle: Klucel (hydroxypropylcellulose) (HPC)
[5] = dose: 100.0 mg/kg/injection, schedule: Q01DX009 (ip), vehicle: saline with Tween-80
[6] = dose: 200.0 mg/kg/injection, schedule: Q01DX009 (ip), vehicle: saline with Tween-80
[7] = dose: 6.25 mg/kg/injection, schedule: Q01DX009 (ip), vehicle: Klucel (hydroxypropylcellulose) (HPC)
[8] = dose: 400.0 mg/kg/injection, schedule: Q04DX003 (ip), vehicle: saline
[9] = dose: 100.0 mg/kg/injection, schedule: Q04DX003 (ip), vehicle: saline with Tween-80
[10] = dose: 200.0 mg/kg/injection, schedule: Q04DX003 (ip), vehicle: saline with Tween-80
[11] = dose: 400.0 mg/kg/injection, schedule: Q04DX003 (ip), vehicle: saline with Tween-80
[12] = dose: 400.0 mg/kg/injection, schedule: Q01DX009 (ip), vehicle: saline with Tween-80

`CN(C)c1ccc2nc3ccc(=[N+](C)C)cc-3sc2c1` was tested, and the T/C (dose: 2.5 mg/kg/injection, schedule: Q01DX009 (ip), vehicle: saline) was 113 % of control, the T/C (dose: 5.0 mg/kg/injection, schedule: Q01DX009 (ip), vehicle: saline) was 104 % of control and the T/C (dose: 7.2 mg/kg/injection, schedule: Q04DX003 (ip), vehicle: saline) was 110 % of control. The T/C (dose: 10.0 mg/kg/injection, schedule: Q01DX009 (ip), vehicle: saline) was 122 % of control, the T/C (dose: 10.0 mg/kg/injection, schedule: Q04DX003 (ip), vehicle: saline) was 110 % of control and the T/C (dose: 11.5 mg/kg/injection, schedule: Q04DX003 (ip), vehicle: saline) was 100 % of control. The T/C (dose: 12.5 mg/kg/injection, schedule: Q01DX009 (ip), vehicle: saline) was 100 % of control, the T/C (dose: 16.5 mg/kg/injection, schedule: Q01DX009 (ip), vehicle: saline) was 95 % of control and 100 % of control and the T/C (dose: 20.0 mg/kg/injection, schedule: Q01DX009 (ip), vehicle: saline) was 104 % of control. The T/C (dose: 25.0 mg/kg/injection, schedule: Q01DX009 (ip), vehicle: saline) was 100 % of control and 104 % of control, the T/C (dose: 37.5 mg/kg/injection, schedule: Q01DX009 (ip), vehicle: saline) was 95 % of control and the T/C (dose: 37.5 mg/kg/injection, schedule: Q04DX003 (ip), vehicle: saline) was 100 % of control.
`CCOCCOCCOCCCNCCCN1CC1` was tested, and the T/C (dose: 50.0 mg/kg/injection, schedule: Q01DX009 (ip), vehicle: saline) was 187 % of control, the T/C [1] was 95 % of control and the T/C [2] was 177 % of control. The T/C [3] was 190 % of control.
With `Cc1c2cnccc2c(C)c2c1c1ccccc1n2CC1CO1` (stereo not given) the T/C [4] was 150 % of control, the T/C (dose: 11.0 mg/kg/injection, schedule: Q01DX009 (ip), vehicle: saline with Tween-80) was 168 % of control and the T/C (dose: 16.5 mg/kg/injection, schedule: Q01DX009 (ip), vehicle: saline with Tween-80) was 176 % of control. The T/C (dose: 25.0 mg/kg/injection, schedule: Q01DX009 (ip), vehicle: saline with Tween-80) was 106 % of control and the T/C (dose: 37.5 mg/kg/injection, schedule: Q01DX009 (ip), vehicle: saline with Tween-80) was 95 % of control.
In the case of `CC(C)NC(=O)N(C(=O)C(F)(F)F)C(C)C`, the T/C (dose: 50.0 mg/kg/injection, schedule: Q01DX009 (ip), vehicle: saline with Tween-80) is reported as 105 % of control, the T/C [5] is reported as 94 % of control and the T/C [6] is reported as 95 % of control.
For `CC1=CCC2C(=O)C=CC(=O)C2C1` (stereo not given), the T/C (dose: 0.57 mg/kg/injection, schedule: Q01DX009 (ip), vehicle: Klucel (hydroxypropylcellulose) (HPC)) was 120 % of control, the T/C (dose: 0.85 mg/kg/injection, schedule: Q01DX009 (ip), vehicle: Klucel (hydroxypropylcellulose) (HPC)) was 115 % of control and the T/C (dose: 2.0 mg/kg/injection, schedule: Q01DX009 (ip), vehicle: Klucel (hydroxypropylcellulose) (HPC)) was 118 % of control. The T/C (dose: 3.12 mg/kg/injection, schedule: Q04DX003 (ip), vehicle: Klucel (hydroxypropylcellulose) (HPC)) was 100 % of control, the T/C (dose: 4.12 mg/kg/injection, schedule: Q01DX009 (ip), vehicle: Klucel (hydroxypropylcellulose) (HPC)) was 109 % of control and 110 % of control and the T/C (dose: 5.0 mg/kg/injection, schedule: Q04DX003 (ip), vehicle: Klucel (hydroxypropylcellulose) (HPC)) was 104 % of control. The T/C [7] was 95 % of control and 120 % of control, the T/C (dose: 6.25 mg/kg/injection, schedule: Q04DX003 (ip), vehicle: Klucel (hydroxypropylcellulose) (HPC)) was 109 % of control and the T/C [4] was 104 % of control and 115 % of control. The T/C (dose: 10.0 mg/kg/injection, schedule: Q04DX003 (ip), vehicle: Klucel (hydroxypropylcellulose) (HPC)) was 109 % of control, the T/C (dose: 12.5 mg/kg/injection, schedule: Q01DX009 (ip), vehicle: Klucel (hydroxypropylcellulose) (HPC)) was 90 % of control and the T/C (dose: 12.5 mg/kg/injection, schedule: Q04DX003 (ip), vehicle: Klucel (hydroxypropylcellulose) (HPC)) was 90 % of control. The T/C (dose: 18.0 mg/kg/injection, schedule: Q01DX009 (ip), vehicle: Klucel (hydroxypropylcellulose) (HPC)) was 113 % of control.
In the case of `O=C(Oc1ccccc1)c1cc(O)c(O)c(O)c1`, the T/C (dose: 50.0 mg/kg/injection, schedule: Q01DX005 (ip), vehicle: saline with Tween-80) is reported as 100 % of control and 106 % of control, the T/C (dose: 100.0 mg/kg/injection, schedule: Q01DX005 (ip), vehicle: saline with Tween-80) is reported as 107 % of control and 115 % of control and the T/C (dose: 200.0 mg/kg/injection, schedule: Q01DX005 (ip), vehicle: saline with Tween-80) is reported as 105 % of control. For the same molecule, the T/C (dose: 400.0 mg/kg/injection, schedule: Q01DX005 (ip), vehicle: saline with Tween-80) was 154 % of control.
For `CCOc1ccc(S(=O)(=O)O)c2cccnc12`, the T/C [2] was 105 % of control, the T/C [3] was 105 % of control and the T/C [8] was 105 % of control.
With `COc1cc2c3cc1Oc1c(OC)c(OC)cc4c1C(Cc1ccc(O)c(c1)-c1cc(ccc1OC)CC3N(C)CC2)N(C)CC4` (stereo not given) the T/C (dose: 1.56 mg/kg/injection, schedule: Q01DX009 (ip), vehicle: Klucel (hydroxypropylcellulose) (HPC)) was 91 % of control, the T/C (dose: 3.13 mg/kg/injection, schedule: Q01DX009 (ip), vehicle: Klucel (hydroxypropylcellulose) (HPC)) was 87 % of control and the T/C [7] was 87 % of control. For the same molecule, the T/C (dose: 50.0 mg/kg/injection, schedule: Q01DX009 (ip), vehicle: carboxymethylcellulose (CMC)) was 88 % of control.
In the case of `NC(CC[Se]CC(N)C(=O)O)C(=O)O` (stereo not given), the T/C (dose: 0.5 mg/kg/injection, schedule: Q01DX010 (ip), vehicle: saline) is reported as 90 % of control, the T/C (dose: 1.0 mg/kg/injection, schedule: Q01DX010 (ip), vehicle: saline) is reported as 104 % of control and the T/C (dose: 2.0 mg/kg/injection, schedule: Q01DX010 (ip), vehicle: saline) is reported as 100 % of control. For the same molecule, the T/C (dose: 4.0 mg/kg/injection, schedule: Q01DX010 (ip), vehicle: saline) was 104 % of control.
In the case of `Cc1ccc([N+](=O)[O-])cc1NC(=O)SCCOC(=O)COc1ccc(Cl)cc1`, the T/C [9] is reported as 95 % of control, the T/C [10] is reported as 100 % of control and the T/C [11] is reported as 109 % of control.
With `O=S(=O)(O)c1ccc(O)cc1` the T/C [1] was 92 % of control, the T/C [2] was 105 % of control and the T/C (dose: 200.0 mg/kg/injection, schedule: Q01DX009 (ip), vehicle: saline) was 88 % of control. The T/C [3] was 115 % of control and the T/C [8] was 110 % of control.
For `O=C(Nc1ccc(Cl)cc1)c1ccccc1`, the T/C (dose: 50.0 mg/kg/injection, schedule: Q01DX009 (ip), vehicle: Klucel (hydroxypropylcellulose) (HPC)) was 122 % of control, the T/C (dose: 50.0 mg/kg/injection, schedule: Q04DX003 (ip), vehicle: Klucel (hydroxypropylcellulose) (HPC)) was 95 % of control and the T/C (dose: 100.0 mg/kg/injection, schedule: Q01DX009 (ip), vehicle: Klucel (hydroxypropylcellulose) (HPC)) was 95 % of control. For the same molecule, the T/C (dose: 100.0 mg/kg/injection, schedule: Q04DX003 (ip), vehicle: Klucel (hydroxypropylcellulose) (HPC)) was 91 % of control, the T/C (dose: 200.0 mg/kg/injection, schedule: Q01DX009 (ip), vehicle: Klucel (hydroxypropylcellulose) (HPC)) was 90 % of control and the T/C (dose: 200.0 mg/kg/injection, schedule: Q04DX003 (ip), vehicle: Klucel (hydroxypropylcellulose) (HPC)) was 100 % of control.
For `CC(=N\O)/C(C)=N/O.CC(=N\O)/C(C)=N/O.CC1CC[N-]CC1.CC1CC[N-]CC1.CC1CC[N-]CC1.CC1CC[N-]CC1.[Cl][Rh][Cl].[Pt+2]`, the T/C (dose: 0.39 mg/kg/injection, schedule: Q01DX009 (ip), vehicle: water) was 110 % of control, the T/C (dose: 0.78 mg/kg/injection, schedule: Q01DX009 (ip), vehicle: water) was 110 % of control and the T/C (dose: 1.56 mg/kg/injection, schedule: Q01DX009 (ip), vehicle: water) was 98 % of control. For the same molecule, the T/C (dose: 6.25 mg/kg/injection, schedule: Q01DX009 (ip), vehicle: water) was 94 % of control and the T/C (dose: 12.5 mg/kg/injection, schedule: Q01DX009 (ip), vehicle: water) was 99 % of control.
`CCCCCCC(=O)/C=C/c1ccc(Cl)cc1Cl` was tested, and the T/C [5] was 109 % of control, the T/C [6] was 94 % of control and the T/C [12] was 98 % of control.
With `CC(=O)N/N=C(/C)C(O)(c1ccccc1)c1ccccc1` the T/C [5] was 99 % of control, the T/C [9] was 103 % of control and the T/C [6] was 100 % of control. The T/C [10] was 99 % of control, the T/C [12] was 99 % of control and the T/C [11] was 87 % of control.
